Test system: Plasmodium berghei
Experiment: Luciferase/luciferin-expressing antifolate-resistant parasites were used to infect a culture of HepG2 cells that were pre-incubated with compounds. Infected hepatocytes emit light due to the luciferase reaction. Assay results are presented as the percent inhibition of light emission compared to control. […]
Assay type: functional
Settings: sporozoite; for IC90: read-out: LUCIFERASE INFECTION ASSAY - IC90
[1] = read-out: LUCIFERASE INFECTION ASSAY - IC50

SMILES	IC50 [1] [µM]	IC90 [µM]	also measured
COC(=O)c1ccc(COc2ccc(/C=N/Nc3ccnc4cc(Cl)ccc34)cc2OC)cc1	> 10	> 10	
Clc1ccc2[nH]cc(CCNc3nc(Cl)nc4nc[nH]c34)c2c1		0.6	IC50 (HEPG2TOX_HILL_SLOPE 2.4, HEPG2TOX_R_SQUARED 0.982, PBLUC_HILL_SLOPE 2.19, PBLUC_R_SQUARED 0.753, read-out: LUCIFERASE INFECTION ASSAY - IC50): 0.22 µM
O=C(CCN1CCN(c2ccccc2)CC1)N/N=C/c1cc(Br)ccc1O		> 10	IC50 (HEPG2TOX_HILL_SLOPE 9.92, HEPG2TOX_R_SQUARED 0.702, PBLUC_HILL_SLOPE 4.41, PBLUC_R_SQUARED 0.46, read-out: LUCIFERASE INFECTION ASSAY - IC50): 6.08 µM
CC1CCc2c(sc3nc(CN4CCOCC4)nc(N4CCN(S(=O)(=O)/C=C/c5ccccc5)CC4)c23)C1 (stereo not drawn)	> 10	> 10	
COc1ccc(CCNc2ncnc3sc(C)cc23)cc1OC	0.791	2.92	
O=S(=O)(Nc1ccc(OC(F)F)c(Cl)c1)c1ccc(Cl)c(Cl)c1	> 10	> 10	
Cn1c(CNC(=O)c2cc(-c3ccccc3)c(N3CCOCC3)s2)nc2ccccc21	> 10	> 10	
c1ccc(-c2cn3nc(NCC(c4cccs4)N4CCOCC4)sc3n2)cc1 (stereo not drawn)		6.67	IC50 (PBLUC_HILL_SLOPE 82.8, PBLUC_R_SQUARED 0.111, read-out: LUCIFERASE INFECTION ASSAY - IC50): 6.5 µM
Cc1cc(C)cc(C(=O)Nc2nc3ccccc3[nH]2)c1	7.33	> 10	
COc1ccc(S(=O)(=O)N(C)CC2COc3ccccc3O2)cc1 (stereo not drawn)	> 10	> 10	
CC(Oc1ccc(C(=O)c2ccc(F)cc2)cc1)C(=O)NC1(C#N)CCCCC1 (stereo not drawn)		> 10	IC50 (HEPG2TOX_HILL_SLOPE 6.49, HEPG2TOX_R_SQUARED 0.548, PBLUC_HILL_SLOPE 2.92, PBLUC_R_SQUARED 0.383, read-out: LUCIFERASE INFECTION ASSAY - IC50): 7.61 µM
Cc1ccc2c(Cl)cc(Cl)c(Oc3ncnc4scc(-c5ccc(Cl)cc5)c34)c2n1		> 10	IC50 (PBLUC_HILL_SLOPE 0.397, PBLUC_R_SQUARED 0.123, read-out: LUCIFERASE INFECTION ASSAY - IC50): > 10 µM
O=C(Nc1cccc(F)c1)Nc1ccc2nc(-c3cccs3)nn2c1		4.34	IC50 (PBLUC_HILL_SLOPE 208, PBLUC_R_SQUARED 0.19, read-out: LUCIFERASE INFECTION ASSAY - IC50): 4.29 µM
CCOc1ccccc1CCC(=O)NCc1ccc(CS(N)(=O)=O)cc1	> 10	> 10	
C/N=c1\scc(-c2ccccc2Br)n1/N=C/c1ccc[nH]1		> 10	IC50 (PBLUC_HILL_SLOPE 15, PBLUC_R_SQUARED 0.188, read-out: LUCIFERASE INFECTION ASSAY - IC50): 9.68 µM
COc1ccc(-c2cnc(N)c(-c3ccc(O)c(OC)c3)c2)cn1		3.7	IC50 (FFLUC_HILL_SLOPE 1.75, FFLUC_R_SQUARED 0.121, PBLUC_HILL_SLOPE 11, PBLUC_R_SQUARED 0.572, read-out: LUCIFERASE INFECTION ASSAY - IC50): 3.03 µM
CCn1nc(C(=O)N2CCN(c3ccccc3)CC2)c2c1CCN(Cc1cc(C)c(OC)cc1C)C2		> 6.77	IC50 (HEPG2TOX_HILL_SLOPE 2.53, HEPG2TOX_R_SQUARED 0.945, PBLUC_HILL_SLOPE 5.03, PBLUC_R_SQUARED 0.659, read-out: LUCIFERASE INFECTION ASSAY - IC50): 4.44 µM

SMILES	IC50 [1] [µM]	IC90 [µM]	also measured
CCOc1ccccc1NC(=O)/C=C/c1nnc2c3ccccc3cnn12		> 10	IC50 (HEPG2TOX_HILL_SLOPE 0.359, HEPG2TOX_R_SQUARED 0.214, PBLUC_HILL_SLOPE 0.79, PBLUC_R_SQUARED 0.499, read-out: LUCIFERASE INFECTION ASSAY - IC50): 1.82 µM
N#C/C(=C\N1CCN(Cc2ccccc2)CC1)S(=O)(=O)c1ccccn1		> 8.96	IC50 (FFLUC_HILL_SLOPE 0.433, FFLUC_R_SQUARED 0.0165, read-out: LUCIFERASE INFECTION ASSAY - IC50): > 8.96 µM
O=C(Cc1cccs1)Nc1nc2ccccc2nc1N1CCCC1		> 10	IC50 (HEPG2TOX_HILL_SLOPE 4.38, HEPG2TOX_R_SQUARED 0.169, read-out: LUCIFERASE INFECTION ASSAY - IC50): > 10 µM
CS(=O)(=O)NCCc1ccc(C(=O)Nc2ncccc2O)cc1		> 10	IC50 (PBLUC_HILL_SLOPE 2.26, PBLUC_R_SQUARED 0.152, read-out: LUCIFERASE INFECTION ASSAY - IC50): 6.59 µM
Cc1cccc(C(=O)Nc2nc3ccccn3c2C(=O)NC2CCCCC2)c1		2.91	IC50 (HEPG2TOX_HILL_SLOPE 2.01, HEPG2TOX_R_SQUARED 0.621, PBLUC_HILL_SLOPE 5.25, PBLUC_R_SQUARED 0.58, read-out: LUCIFERASE INFECTION ASSAY - IC50): 1.91 µM
CCOc1ccc(NC(=O)c2ccc(F)cc2)cc1S(=O)(=O)N(C)C		> 10	IC50 (PBLUC_HILL_SLOPE 2.43, PBLUC_R_SQUARED 0.406, read-out: LUCIFERASE INFECTION ASSAY - IC50): 8.56 µM
CCCNC(=O)C(C)NC(=O)Nc1c(C)cccc1CC (stereo not drawn)		> 10	IC50 (PBLUC_HILL_SLOPE 13.4, PBLUC_R_SQUARED 0.0478, read-out: LUCIFERASE INFECTION ASSAY - IC50): > 10 µM
COc1ccc(C)cc1CCNc1cc(Cl)nc(N)n1		> 10	IC50 (HEPG2TOX_HILL_SLOPE 10.5, HEPG2TOX_R_SQUARED 0.0746, read-out: LUCIFERASE INFECTION ASSAY - IC50): > 10 µM
CNC(=O)c1csc(C(O)c2cccc(C(F)(F)F)c2)n1 (stereo not drawn)		3.81	IC50 (HEPG2TOX_HILL_SLOPE 1.87, HEPG2TOX_R_SQUARED 0.885, PBLUC_HILL_SLOPE 18.2, PBLUC_R_SQUARED 0.279, read-out: LUCIFERASE INFECTION ASSAY - IC50): 3.38 µM
O=C(Nc1ccccc1)Nc1ccc(Cl)c(Cl)c1		9.61	IC50 (HEPG2TOX_HILL_SLOPE 12, HEPG2TOX_R_SQUARED 0.666, PBLUC_HILL_SLOPE 4.82, PBLUC_R_SQUARED 0.734, read-out: LUCIFERASE INFECTION ASSAY - IC50): 6.09 µM
COc1ccc(C=C(c2nc3ccccc3s2)c2nc3ccccc3s2)c(OC)c1OC		> 10	IC50 (HEPG2TOX_HILL_SLOPE 1.46, HEPG2TOX_R_SQUARED 0.78, PBLUC_HILL_SLOPE 2.12, PBLUC_R_SQUARED 0.479, read-out: LUCIFERASE INFECTION ASSAY - IC50): 7.05 µM
COc1ccc(CO)c(Cl)c1OC	> 16.3	> 16.3	
COC(=O)c1c(NC(=O)c2ccoc2)c2cc(NC(C)CC(F)(F)F)cnc2n1CC(C)C (stereo not drawn)	> 7.07	> 7.07	
CCNC(=O)C1CCCN(Cc2cc(C(F)(F)F)ccc2Cl)CC1 (stereo not drawn)		3.4	IC50 (PBLUC_HILL_SLOPE 383, PBLUC_R_SQUARED 0.415, read-out: LUCIFERASE INFECTION ASSAY - IC50): 3.38 µM
CCOc1ccccc1C(=O)CN1C(=O)COc2ccccc2C1=O	> 9.72	> 9.72	
Cc1cc(C)c(Nc2nc(-c3c(-c4ccccc4)noc3C)cs2)c(C)c1		5.3	IC50 (FFLUC_HILL_SLOPE 43.6, FFLUC_R_SQUARED 0.276, HEPG2TOX_HILL_SLOPE 3.1, HEPG2TOX_R_SQUARED 0.635, PBLUC_HILL_SLOPE 7.7, PBLUC_R_SQUARED 0.763, read-out: LUCIFERASE INFECTION ASSAY - IC50): 3.98 µM
CCc1ccc(-c2csc(NC(=O)CCc3c(C)nc4nc(SC)nn4c3C)n2)cc1	> 10	> 10	

— ChEMBL document CHEMBL4483862, “Open-source discovery of chemical leads for next-generation chemoprotective antimalarials” (2018)
